# Measurements: patent US20250051282A1, “COMPOUNDS FOR TREATING POLYQ-RELATED NEURODEGENERATIVE DISORDERS” (HANGZHOU JIJING PHARMACEUTICAL TECHNOLOGY LIMITED, priority 2021, published 2025)
# Structures can show the parent of a compound that is named as a salt.
# Test system: ATXN1(60Q)
# Test: Daoy-ATXN1(60Q)-mATXN1 MSD assay (CTG normalized)
# Format: cell-based
# Settings: Daoy-Flag-ATXN1(60Q) stable cells, compound added Day 2, lysis Day 3, final DMSO 0.3%, read-out: Daoy-ATXN1(60Q)-mATXN1 MSD (CTG normalized) DC50
# Experimental: Protocol for MSD Assay: Daoy-ATXN1(600)-mATXN1 MSD (CTG normalized)
# The Flag-ATXN1(60Q) gene is synthesized by Genescript and cloned into the pLVX-IRES-Puro vector (Takarabio, catalog No. 632183) using EcoRI/BamHI restriction enzyme sites. Lentivirus is made by transfecting HEK293T cells with pLVX-IRES-Puro-Flag-ATXN1(60Q) plasmids and packaging plasmids psPAX2 and pMD2.G at 4:3:1 ratio (8:6:[…], respectively) in 10 cm plates, and are harvested at 48 hours post transfection. Daoy cells (ATCC catalog No. HTB-186) seeded in T25 flasks are infected with the lentivirus in the presence of 8 µg/mL polybrene (Sigma, TR-1003-G) for 24 hours. 48 hours post infection, the cells are selected using 0.5 […] (Sigma, P8833) for more than 5 days until all cells in the uninfected group die. The expression of Flag-ATXN1(60Q) is verified by anti-Flag immunoblot using anti-Flag antibody (Sigma, F1804-200UG, M2).
# As explained above, Daoy-Flag-ATXN1(60Q) cells are prepared as a stable cell line by infecting Daoy cells with lentivirus. The media for the cells is EMEM (ATTC, 30-2008) with 10% fetal bovin serum (FBS).
# On Day 1, the Daoy-Flag-ATXN1(60Q) cells are seeded in a 96 well plate at a concentration of 1.2×10^4/well. On Day 2, the cells are treated with test compounds at test concentrations (compounds are serially diluted with DMSO to obtain test concentrations, such that final DMSO concentration is 0.3%). On Day 3, the cells are washed with 100 μL of phosphate-buffered saline (PBS) per well, and then 30 μL of radioimmuno-precipitation assay (RIPA) buffer (with protease and phosphatase inhibitor cocktail) is added to each well.
# The well plate is then cooled on ice for 30 minutes in order to complete lysis, and MSD samples are prepared using 10 μL of Daoy-Flag-ATXN1-60Q lysate and 90 μL of RIPA buffer with gentle mixing. Each MSD sample has a total volume of 100 μL, and is used immediately or stored at −80° C.
# A standard Meso Scale Discovery (MSD) plate is coated with anti-Flag (Sigma, F1804-200UG, M2) in PBS at 1:500 dilution ratio and 40 µL/well, and is incubated at 4° C. overnight with shaking at 600 rpm. Then, the MSD plate is washed 3 times with 150 µL/well of 1X TBST (tris-buffered saline (TBS) with Tween 20) buffer, and the MSD plate is blocked with 150 μL of blocking buffer [3% Blocker A in 1X TBST, (3 g Blocker A per 100 mL 1X TBST)] and shaken for 1 hour at 600 rpm at room temperature. Then, the MSD plate is washed three times with 150 μL/well of 1X TBST. Next, the diluted lysate samples (from Sample Preparation above) are added to the MSD plate at 25 μL/well, and the MSD plate is shaken at 600 rpm for 1 hour at room temperature. Then the MSD plate is washed 3 times with 150 μL/well of 1X TBST.
# Detection antibody anti-Ataxin 1 (G-bio, ITA1916) (1:500), which is prepared in antibody detection buffer (1% Blocker A in 1X TBST), is then added to the MSD plate at 25 µL/well, and the MSD plate is shaken at 600 rpm for 1 hour at room temperature. The MSD plate is then washed three times with 150 μL/well of 1X TBST. Next, a secondary detection antibody, Goat anti-rabit (GAR) with SULFO-TAG (1:500), which is prepared in antibody detection buffer (1% Blocker A in 1X TBST), is added at 25 μL/well and the MSD plate is shaken at 600 rpm for 1 hour at room temperature. Then the MSD plate is washed 3 times with 150 μL/well of 1X TBST, and 2X MSD reading buffer is added at 150 μL/well (diluted from 4x MSD reading buffer with water). Finally, the signal from each well is measured on the MSD Meso QuickPle SQ120 Plate Reader. DC50 data is calculated using collaborate drug discovery (CDD) software (https://www.collaborativedrug.com/about).
row,SMILES,DC50 [µM]
1,"NCCOCCOCCOCCN/C(=C1\C(=O)Nc2ccc(Br)cc21)c1cccc(O)c1 [Example 36, (Z)-3-(13-amino-1-(3-hydroxyphenyl)-5,8,11-trioxa-2-azatridecylidene)-5-bromoindolin-2-one]",10 to 30
2,"O=C1Nc2ccc(Br)cc2/C1=C(/Nc1ccnnc1)c1ccc2[nH]c(=O)oc2c1 [Example 64, (Z)-6-((5-bromo-2-oxoindolin-3-ylidene)(pyridazin-4-ylamino)methyl) benzo[d]oxazol-2(3H)-one]",< 10
3,"Nc1cccc(/C(Nc2cn[nH]c2)=C2/C(=O)Nc3ccc(Br)cc32)c1 [Example 59, (Z)-3-(((1H-pyrazol-4-yl)amino)(3-aminophenyl)methylene)-5-bromoindolin-2-one]",< 10
4,"O=C1Nc2ccc(Br)cc2/C1=C(/Nc1ccnnc1)c1ccc(F)c(F)c1 [Example 42, (Z)-5-bromo-3-((3,4-difluorophenyl) (pyrazin-4-ylamino)methylene) indolin-2-one]",> 30
5,"O=C1Nc2ccc(Br)cc2/C1=C(/NC1CCNC1)c1cccc(O)c1 (stereo not shown) [Example 24, (Z)-5-bromo-3-((3-hydroxyphenyl) (pyrrolidin-3-ylamino)methylene) indolin-2-one formate]",> 30
6,"O=C1Nc2ccc(Br)cc2/C1=C(/Nc1cncnc1)c1cccc(O)c1 [Example 69, (Z)-5-bromo-3-((3-hydroxyphenyl) (pyrimidin-5-ylamino)methylene)indolin-2-one]",< 10
7,"CN/C(=C1\C(=O)Nc2ccc(Br)cc21)c1cccc(O)c1 [Example 1, (Z)-5-bromo-3-((3-hydroxyphenyl) (methylamino)methylene) indolin-2-one]",< 10
